{
  "source": "patent US20230381163A1",
  "about": "“DABIGATRAN COMPOSITIONS AND METHODS OF TREATING AGE-RELATED MACULAR DEGENERATION” (The United States Government As Represented By The …, priority 2022, published 2023)",
  "key": {"[1]": {"tested_on": "C3d and C5b-9 deposition on ARPE-19 cells", "test": "C3d and MAC (C5b-9) deposition on ARPE-19 cell surfaces (immunofluorescence)", "conditions": "10 μM, compared with thrombin-treated cells (20 U/mL)", "procedure": "ARPE-19 cells were grown on transwell membranes in 6 well plates (Thurman, J. M., et al. (2009). J Biol Chem 284, 16939-16947), treated with thrombin and inhibitors, and fixed in 4% paraformaldehyde for 15 min at room temperature. Primary antibodies against C5b-9 (1:200, Abcam) and C3d (1:100) (Thurman, J. M., et al. (2013). J Clin Invest 123, 2218-2230) were diluted in blocking buffer (10% normal goat serum, 3% BSA, 0.4% Triton X-100 in PBS) and cells were incubated for overnight at 4° C., followed by washes and incubation with goat anti-rabbit Alexa Fluor® 568—conjugated IgG or donkey anti-goat Alexa Fluor® 488-conjugated secondary antibodies (1:500; Thermo Fisher Scientific), respectively. Nuclei were identified with DAPI (Sigma-Aldrich). Transwell membranes were covered with aqua-mount mounting media (Thermo Scientific), cover slipped and photographed (Olympus 1X73 Research Inverted Microscope equipped with cellSens imaging software).\nFirst, it was tested whether thrombin results in deposition of C3d and the assembly of MAC on ARPE-19 cell surfaces. ARPE-19 cell monolayers were treated apically with thrombin and deposition of MAC (C5b-9; red) and C3d (green) were examined by immunofluorescence staining (FIG. 4A)."}, "[2]": {"tested_on": "VEGF secretion in ARPE-19 cells", "test": "VEGF secretion into apical supernatant of ARPE-19 monolayers (ELISA)", "assay_type": "cell-based, human", "conditions": "dabigatran, thrombin-treated cells", "experimental": "Cell culture experiments: Cells. […] Frontiers in Aging Neuroscience 9).\nVEGF ELISA. VEGF in the supernatant was measured using the Quantikine® Human VEGF Immunoassay (R & D System) according to the manufacturer's protocol. In brief, 200 μl of standard/sample was mixed with 50 μl of assay diluent and added to the plate precoated with the capture antibody. After washing, 200 μl of the VEGF detection antibody (polyclonal antibody specific for human VEGF conjugated to horseradish peroxidase) was added, followed by freshly prepared substrate reagents (stabilized hydrogen peroxide and tetramethylbenzidine). The reaction was terminated using 50 μl of stop solution and absorbance was measured at λ1 450 nm with wavelength correction λ2 at 540 nm. VEGF concentration of samples were calculated comparing the absorbance with the standards and converted into fold change considering the serum-free condition as 1 in the scale."}, "CTGF": {"tested_on": "CTGF", "test": "CTGF levels in RPE/choroid of CNV mice (western blot)", "assay_type": "in vivo, mouse", "conditions": "end of repair period (23 days), P<0.01", "excerpt": "Pathway analysis in CNV. Based on the results in cells, an analysis in animals followed, focusing on VEGF levels in the RPE/choroid, complemented by CTGF analysis and complement activation (C3d production and binding). RPE/choroid samples were collected at the end of the angiogenesis experiment (day 6) and after the final OCT analysis in the repair experiment (day 23) and compared to naive controls (no CNV and no dabigatran treatment)."}, "[3]": {"tested_on": "AMD diagnosis in Medicare patients", "test": "MarketScan retrospective analysis of AMD diagnosis in dabigatran-exposed vs matched control Medicare patients", "assay_type": "in vivo, human", "excerpt": "Material and methods. MarketScan analysis: Population. A total of 41,860 dabigatran-exposed and 41,860 non-exposed controls, for a total of 83,720 Medicare patients were extracted from MarketScan® data from 2010-2015 and used in the analysis. Patients with an inpatient or outpatient record with a diagnosis of AMD (wet or dry) for the baseline period were excluded from inclusion in the data set. Patients who filled at least one prescription of dabigatran during the 2011-2012 exposure period were included in the dabigatran group. The date of the first filled prescription was designated as the Index Date. […] The first patient record date in randomly selected records from 2011 or 2012 was chosen as the Index Date for control group patients. Patients with <90 days of insurance coverage in the baseline period or <120 days of coverage in the study (exposure) period were excluded from the final cohort. The exposed and control patients were matched by age, sex, state of residence, Index Date, days in baseline period, and days in study period using 1:1 propensity score mating with a greedy algorithm and a caliper distance of 0.2.\nSurvival and Statistical Analysis. Survival analysis was used (Schnabolk et al., 2019) to show differences in time until AMD diagnosis among dabigatran users and control subjects using the […] procedure. AMD diagnoses were identified using ICD-9 codes 362.5 (unspecified macular degeneration), 362.51 (dry AMD), and 362.52 (wet AMD). A period of ˜5 years (from Jul. 1, 2010, to Dec. 31, 2015) was used for this analysis, and preexisting AMD diagnosis was ruled out by requiring that the subjects be AMD free over the first ˜600 days (designated as baseline days or Base Days). Data on the matched control and dabigatran population were analyzed using multivariable logistic and Cox regression. Specifically, the odds of being diagnosed with AMD during the follow-up time, controlling for days of dabigatran exposure, and the proportional hazard rates of obtaining an AMD diagnosis in the dabigatran or control population as well as any baseline differences in demographics or comorbidities was compared (Charlson or Elixhouser diagnoses).\nResults. Association between Dabigatran Use and AMD Risk. The patient population consisted of 83,720 Medicare patients extracted from MarketScan® data from 2010-2015 as described herein, with 41,860 dabigatran-exposed and 41,860 non-exposed controls. The controls were matched on 33 baseline variables, including demographics and clinical characteristics (Schnabolk, G., et al. (2019). Invest Ophthalmol Vis Sci 60, 3520-3526) (Table 1)."}, "[4]": {"conditions": "1-2 years exposure to dabigatran"}, "[5]": {"conditions": "2+ years exposure to dabigatran"}},
  "data": [
    {"molecule": "CCCCCCOC(=O)NC(=N)c1ccc(NCc2nc3cc(C(=O)N(CCC(=O)OCC)c4ccccn4)ccc3n2C)cc1", "values": [
      {"measurement": "reduction of C5b-9 deposition", "setting": "[1]", "value": "~50", "unit": "%"},
      {"measurement": "reduction of C3d deposition", "setting": "[1]", "value": "~60", "unit": "%"},
      {"measurement": "reduction of thrombin-induced VEGF content", "setting": "[2]", "value": "~35", "unit": "%"},
      {"measurement": "effect on CTGF levels in RPE/choroid", "setting": "CTGF", "value": "significantly reduced"},
      {"measurement": "% AMD per study year", "setting": "[3]; [4]", "value": 3.25, "unit": "%"},
      {"measurement": "% patients with a wet AMD diagnosis", "setting": "[3]; [4]", "value": 0.90, "unit": "%"},
      {"measurement": "% patients with an AMD diagnosis", "setting": "[3]; [4]", "value": 10.11, "unit": "%"},
      {"measurement": "% wet AMD per study year", "setting": "[3]; [4]", "value": 0.26, "unit": "%"},
      {"measurement": "risk of AMD by exposure strata (odds ratio vs controls)", "setting": "[3]; 1-2 years of dabigatran", "value": 0.64},
      {"measurement": "% AMD per study year", "setting": "[3]; [5]", "value": 3.00, "unit": "%"},
      {"measurement": "% patients with a wet AMD diagnosis", "setting": "[3]; [5]", "value": 1.35, "unit": "%"},
      {"measurement": "% patients with an AMD diagnosis", "setting": "[3]; [5]", "value": 12.26, "unit": "%"},
      {"measurement": "% wet AMD per study year", "setting": "[3]; [5]", "value": 0.29, "unit": "%"},
      {"measurement": "risk of AMD by exposure strata (odds ratio vs controls)", "setting": "[3]; 2+ years of dabigatran", "value": 0.64},
      {"measurement": "% AMD per study year", "setting": "[3]; <1 year exposure to dabigatran", "value": 3.04, "unit": "%"},
      {"measurement": "% patients with a wet AMD diagnosis", "setting": "[3]; <1 year exposure to dabigatran", "value": 0.75, "unit": "%"},
      {"measurement": "% patients with an AMD diagnosis", "setting": "[3]; <1 year exposure to dabigatran", "value": 7.51, "unit": "%"},
      {"measurement": "% wet AMD per study year", "setting": "[3]; <1 year exposure to dabigatran", "value": 0.28, "unit": "%"},
      {"measurement": "risk of AMD by exposure strata (odds ratio vs controls)", "setting": "[3]; <1 year of dabigatran", "value": 0.52},
      {"measurement": "% AMD per study year", "setting": "[3]; all dabigatran users", "value": 3.07, "unit": "%"},
      {"measurement": "% patients with a wet AMD diagnosis", "setting": "[3]; all dabigatran users", "value": 0.91, "unit": "%"},
      {"measurement": "% patients with an AMD diagnosis", "setting": "[3]; all dabigatran users", "value": 9.1, "unit": "%"},
      {"measurement": "% wet AMD per study year", "setting": "[3]; all dabigatran users", "value": 0.28, "unit": "%"},
      {"measurement": "% patients with an AMD diagnosis", "setting": "[3]; all dabigatran users, listed as Dabigatran", "value": 9.10, "unit": "%"},
      {"measurement": "reduction of percent AMD per study year", "setting": "[3]; dabigatran vs control group", "value": "~35", "unit": "%"},
      {"measurement": "reduction of percent patients with a wet AMD diagnosis", "setting": "[3]; dabigatran vs control group", "value": "~60", "unit": "%"},
      {"measurement": "hazard ratio, time to first recorded diagnosis of unspecified AMD", "setting": "[3]; dabigatran vs matched controls, P<0.0001", "value": 0.63},
      {"measurement": "Days to AMD, Mean", "setting": "[3]; dabigatran-exposed subjects, n 3810", "value": 562, "unit": "days"},
      {"measurement": "Wet Days, Mean", "setting": "[3]; dabigatran-exposed subjects, n 38399", "value": 1047, "unit": "days"},
      {"measurement": "Dry Days, Mean", "setting": "[3]; dabigatran-exposed subjects, n 41511", "value": 1011, "unit": "days"},
      {"measurement": "AMD Days, Mean", "setting": "[3]; dabigatran-exposed subjects, n 41860", "value": 1007, "unit": "days"},
      {"measurement": "odds ratio (OR) of AMD", "setting": "[3]; multivariable logistic regression controlling for age, sex, days in study, CI 0.55-0.61", "value": 0.58}
    ]}
  ]
}
